According to patent US20230265438A1, “NUCLEIC ACIDS FOR INHIBITING EXPRESSION OF CNNM4 IN A CELL” (ASOCIACIÓN CENTRO DE INVESTIGACIÓN COOPERATIVA EN …, priority 2020, published 2023):
Oligonucleotides are written 5' to 3', each unit as a sugar letter and its base; * is a phosphorothioate linkage, no mark a phosphodiester; rarer units and linkages stand in square brackets, end groups in braces. Plain capitals give the bases only. {ST23(ps)x3-ST43} = conjugate of three ST23 units joined by phosphorothioates, then ST43, saccharide (preferably GalNAc) moiety; {VP} = (E)-vinylphosphonate; m = 2'-O-methyl; f = 2'-fluoro

Key:
[1] = tested on: CNNM4 mRNA; assay: CNNM4 mRNA in liver of wild-type mice after single subcutaneous dose (Examples 12-14); type: in vivo, mouse; settings: wild-type C57BL/6 mice
Description: (§1) Five- to seven-week old male C57BL/6 mice were treated with a single dose of 1 or 5 mg siRNA conjugate per kg body weight by subcutaneous injection. Control groups received a subcutaneous injection with the vehicle PBS. Two weeks after the treatment, liver samples were collected from all mice and snap frozen. RNA was extracted from liver samples and CNNM4 and Actin mRNA levels were determined by Taqman qRT-PCR. Values obtained for CNNM4 mRNA were normalized to values generated for the housekeeping gene Actin and related to mean of untreated sample (ut) set at 1-fold target gene expression. Each bar represents mean value from 6 animals +/-SD.
Five- to seven-week old male C57BL/6 mice were treated with a single dose of 0.3 or 1 mg siRNA conjugate per kg body weight by subcutaneous injection. Control groups received a subcutaneous injection with the vehicle PBS. Two weeks after the treatment, liver samples were collected from all mice and snap frozen. RNA was extracted from liver samples and CNNM4 and Actin mRNA levels were determined by Taqman qRT-PCR. Values obtained for CNNM4 mRNA were normalized to values generated for the housekeeping gene Actin and related to mean of untreated sample (ut) set at 1-fold target gene expression. Each bar represents mean value from 6 animals +/-SD.
as §1, with “1” for “1 or 5”, “Five” for “Two”, “PBS treated cohort (PBS)” for “untreated sample (ut)”

[2] = tested on: 0.1% MCDD NASH model; assay: Rodent 0.1% MCDD NASH model: steatosis, ROS, macrophages, fibrosis, serum Mg2+ (Example 18); type: in vivo, mouse; settings: 0.1% MCDD mice
Description: Three-month old male C57BL/6 mice were maintained on a diet deficient in choline with 0.1% methionine (0.1%MCDD) (A02082006i, Research Diets, Inc., New Jersey, USA) for six weeks or fed a standard chow (SC). After three weeks of 0.1% MCDD, mice were treated with […] CNNM4 siRNA conjugate (EU414) per body weight. Control groups fed with 0.1% MCD received 1 mg/kg non-targeting siRNA conjugate (EU400). Control mice fed with normal chow (SC) received the vehicle PBS at the same time point (three weeks). Liver samples were collected from all mice at the end of the study and cryopreserved by embedding in […] cryocompound (OCT) or fixed with formalin and embedded in paraffin for preparation of sections. Lipid bodies and reactive oxygen species (ROS) were detected in cryosections by staining with Sudan red and Dihydroxyetidium (DHE), respectively. Liver fibrosis was assessed in paraffine sections by staining of the smooth muscle cell marker alpha smooth muscle actin (αSMA) by immunohistochemistry, as well as by detection of collagen fibers by Sirius red staining. Macrophages were detected by immunohistochemistry, by F4/80 staining of paraffin-embedded liver sections. Blood samples were collected from all animals at the six-week time point for serum preparation. Serum Mg^2+ levels were then determined using the QuantiCrom™Magnesium Assay Kit (BioAssay Systems, USA).
These figures show quantifications of stained area percentages from each individual staining calculated using FIJI (https://imagej.net/Fiji.) in box and whisker plots with 5-95% percentile. n=5-7. (a.u. = arbitrary units).

[3] = tested on: murine hepatocytes; assay: Acetaminophen (APAP) induced cell death in hepatocytes, Tunel and Trypan Blue (Example 19); type: cell-based; settings: 1 nM and 10 nM for 6 hours, 10 mM acetaminophen for 6 hours
Description: Freshly prepared murine hepatocytes were seeded in multi-well plates. Upon attachment, cells were incubated for 6 hours with 1 nM and 10 nM of EU404 or EU414 or left untreated. Thereafter, cells were cultured in serum-free culture medium (MEM) for 13 to 14 hours. Subsequently, they remained untreated (Ut) or 10 mM acetaminophen was added to the medium (APAP). 6 hours later, cells were stained by Tunel assay or Trypan Blue staining to determine the proportion of cells that were necrotic (Tunel positive) or had undergone cell death (Trypan Blue positive).

[4] = tested on: CNNM4; assay: CNNM4 expression in hepatocytes of the APAP experiment (Example 19); type: cell-based; settings: murine hepatocytes, 1 nM and 10 nM for 6 hours; FIG. 25A
[5] = biological target: T1, ASGP-R complex (Homo sapiens, UniProt P07306+P07307); settings: cited from earlier work
T1 sequence (P07306 1-291): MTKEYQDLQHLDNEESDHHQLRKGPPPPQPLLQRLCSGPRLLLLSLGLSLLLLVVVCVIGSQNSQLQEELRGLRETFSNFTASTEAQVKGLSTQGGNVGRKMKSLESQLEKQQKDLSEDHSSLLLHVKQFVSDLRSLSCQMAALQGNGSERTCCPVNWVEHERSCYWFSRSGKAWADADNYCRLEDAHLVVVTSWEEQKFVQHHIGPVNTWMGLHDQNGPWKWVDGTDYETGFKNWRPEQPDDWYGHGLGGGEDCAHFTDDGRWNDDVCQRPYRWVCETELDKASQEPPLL
T1 sequence (P07307 1-311): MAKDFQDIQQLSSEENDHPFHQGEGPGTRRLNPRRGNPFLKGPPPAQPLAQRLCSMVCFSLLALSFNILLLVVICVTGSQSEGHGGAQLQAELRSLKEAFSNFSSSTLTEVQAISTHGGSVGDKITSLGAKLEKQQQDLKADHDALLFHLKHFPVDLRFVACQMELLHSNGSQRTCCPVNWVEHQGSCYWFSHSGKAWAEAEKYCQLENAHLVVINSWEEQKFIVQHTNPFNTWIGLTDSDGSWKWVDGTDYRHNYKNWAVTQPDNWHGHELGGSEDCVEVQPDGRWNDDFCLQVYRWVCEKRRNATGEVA

[6] = tested on: primary hepatocytes; assay: Lipid content in NASH-induced primary hepatocytes, BODIPY (Example 1); type: cell-based, mouse
Description: Primary hepatocytes from 3-month old wild-type (C57BL/6J) mice were isolated by perfusion with collagenase Type I (Worthington, USA). Briefly, animals were anesthetized with isoflurane (1.5% isoflurane in O2). […] Liver was perfused with buffer A (1x PBS, 5 mM EGTA, 37° C. and oxygenated) and the portal vein was cut. Next, liver was perfused with buffer B (1x PBS, 1 mM CaCl2 37° C. and oxygenated) to remove EGTA, and finally perfused with buffer C (1x PBS, 2 mM CaCl2, 0.65 BSA, collagenase type I, 37° C. and oxygenated). After buffer C perfusion, liver was separated from the resto of the body and placed into a petri dish with MEM (Gibco, USA). Gall bladder was carefully removed and, then, liver was mechanically disaggregated with forceps. […]
(§2) Primary hepatocytes cultured in high lipid content medium (OA) or methionine/choline deficient medium (MDMC) were fixed in 4% paraformaldehyde (10′, RT) in PBS and incubated with BODIPY 493/503 (Molecular Probes, Invitrogen) at 1 mg/ml (1h, RT). […] Quantification of lipid bodies was performed using Frida Software and represented as mean area per total number of cells.

[7] = tested on: primary hepatocytes; assay: Intracellular magnesium levels in primary hepatocytes (Example 1); type: cell-based, mouse; settings: NASH-induced primary hepatocytes; FIG. 7B
Description: Primary hepatocytes grown in glass coverslips were loaded with 2 µM Mag-S-Tz or 1 µM Mag-S-Tz-AM diluted REF (Gruskos et al., 2016. J. Am. Chem. Soc. 138 (44), pp 14639-14649) in 0% FBS/1% PSG medium and incubated at 37° C. and 5% CO2 during 30′ or 1 h respectively. After removing the dye-containing medium, a 30′ incubation in 0% FBS/1% PSG was performed. Coverslips were then washed in a 20 mM Tris-HCl, 2.4 mM CaCl2, 10 mM glucose, pH 7.4 buffer and mounted on a perfusion chamber with thermostat on a Eclipse TE 300-based microspectrofluorometer (Nikon, USA) and visualized with a 40x oil-immersion fluorescence. Intracellular Mg2+ levels were determines using the method described by Grynkiewicz (Grynkiewiz et al., 1985. J Biol Chem. 260(6):3440-50). The 340/380 nm excited light ratio was determined with a Delta system (Photon Technologies International, Princeton) and converted into Mg^2+ concentration from the standard equation: […]

[8] = tested on: THLE2 cells; assay: Lipid accumulation in NASH-induced human cells (THLE2) (Example 1); type: cell-based; settings: FIG. 4A, 4B
Description: THLE-2 cells were purchased from ATCC (ATCC® CRL-2706TM). They were maintained on Bronchial Epithelial Growth Medium (BEGMTM, Lonza) supplemented with BEGM Bullet KitTM (Lonza) and 10%FBS. They were split with 0.05% trypsin-EDTA and collected in BEGM. After centrifugation at 123 g during 5 minutes, supernatant was discarded and pellet resuspended.
Cells were transfected with specific siRNAs (Hs n7o for human CNNM4 and Mm n7o for mouse CNNM4) at a final concentration of 100 nM using DharmaFECT 1 reagent (Dharmacon) following manufacturer’s protocol. DharmaFECT 1 and siRNA were diluted separately in 0% FBS/1% PSG MEM for 5′ at RT. Dilutions were then mixed and incubated 20′ at RT. siRNA transfection mixes were then added to cell suspension medium and replaced for fresh medium after 6 h.
Cells were transfected with a CNNM4 shRNA (SEQ ID NO: 454) by using lipofectamine® 3000 (Thermofisher) and following the protocol according manufacturer instructions. […]
as §2

EU414: CNNM4 siRNA conjugate, duplex EU414A/EU414B; consists of SEQ ID NO: 237 and SEQ ID NO: 238 (chain 1 {VP}-mUfGmAfCmAfAmAfAmGfAmCfAmCfAmAfGmA*fG*mU; chain 2 {ST23(ps)x3-ST43}*mAmCmUmCmUmUfGfUfGmUmCmUmUmUmUmGmU*mC*mA)
CNNM4 mRNA levels in the liver ([1]; two weeks after single dose of 1 or 5 mg/kg s.c., FIG. 18): reduction of CNNM4 mRNA levels
Liver steatosis (lipid bodies, Sudan red) ([2]; 1 or 5 mg/kg at week 3, liver at week 6, FIG. 24A): reduction of liver steatosis
Reactive oxygen species (DHE staining) ([2]; 1 or 5 mg/kg at week 3, liver at week 6, FIG. 24B): reduction of reactive oxygen species
Macrophage infiltration (F4/80 positive cells) in the liver ([2]; 1 or 5 mg/kg at week 3, liver at week 6, FIG. 24C): reduction of macrophage infiltration
Liver fibrosis (αSMA, Sirius red) ([2]; 1 or 5 mg/kg at week 3, liver at week 6, FIGS. 24D and 24E): reduction in liver fibrosis
Serum Mg2+ levels ([2]; 1 or 5 mg/kg at week 3, serum at six-week time point, FIG. 24F): reduction of serum Mg^2+ levels
Tripan Blue positive cells (cell death marker) [3]: reduction
Tunel positive cells (necrosis marker) [3]: reduction of Tunel positive cells
CNNM4 expression [4]: reduction of CNNM4 expression

CC(=O)N[C@H]1C(O)O[C@H](CO)[C@H](O)[C@@H]1O (stereo partly drawn) [GalNAc, 2-(Acetylamino)-2-deoxy-D-galactopyranose]
Affinity for the ASGP-R complex relative to D-Gal [5]: 50 fold

Magnesium
Lipid content ([6]; primary hepatocytes with CNNM4 overexpression, FIG. 5B): does not reduce lipid content

EU420: CNNM4 siRNA conjugate, duplex EU414A/EU420B; consists of SEQ ID NO: 237 and SEQ ID NO: 460 (chain 1 UGACAAAAGACACAAGAGU; chain 2 ACUCUUGUGUCUUUUGUCA; conjugate, chemistry not fully specified)
CNNM4 mRNA levels in the liver ([1]; five weeks after single dose of 1 mg/kg s.c., FIG. 20): reduction of CNNM4 mRNA levels
CNNM4 mRNA levels in the liver ([1]; two weeks after single dose of 0.3 or 1 mg/kg s.c., FIG. 19): reduction of CNNM4 mRNA levels

Nc1c[nH]c(=O)c2cc(-c3ccccc3)sc12 [7-amino-2-phenyl-5H-thieno[3,2-c]pyridin-4-one, reference compound]
Lipid content ([6]; NASH-induced primary hepatocytes, FIG. 3A, 5A, 7A): decreases its lipid content
Intracellular magnesium levels [7]: accumulate magnesium

CNNM4 shRNA: CNNM4 shRNA (SEQ ID NO: 454) (UCUCUGCCUUCAAGGAUGCGGACAAUGAG; listed as RNA, chemistry not fully specified)
Lipid content [8]: returns to healthy levels
